{"source": "PubChem BioAssay AID1259407", "about": "(Chemical Carcinogenesis Research Information System (CCRIS), 2018)", "test_system": "CCRIS mutagenicity, Ames/micronucleus/aberration tests", "test": "CCRIS mutagenicity studies", "key": {"[1]": {"conditions": "Test System: AMES SALMONELLA TYPHIMURIUM, Strain/Indicator: TA98, Metabolic Activation: NONE, Method: STANDARD PLATE"}, "[2]": {"conditions": "Test System: AMES SALMONELLA TYPHIMURIUM, Strain/Indicator: TA100, Metabolic Activation: NONE, Method: STANDARD PLATE"}}, "note": "The source made the active and inactive calls. The rule behind the calls is not given here.", "data": [{"molecule": "CC/C=C/C=C/C=C/C=C/C=C/OC[C@@H](O)CO", "values": [{"measurement": "mutagenic call", "setting": "[1]", "result": "active; positive"}, {"measurement": "mutagenic call", "setting": "Test System: AMES SALMONELLA TYPHIMURIUM, Strain/Indicator: TA98, Metabolic Activation: NONE, Method: STANDARD PLATE (AEROBIC)", "result": "inactive; negative"}, {"measurement": "mutagenic call", "setting": "Test System: AMES SALMONELLA TYPHIMURIUM, Strain/Indicator: TA98, Metabolic Activation: NONE, Method: STANDARD PLATE (ANAEROBIC)", "result": "active; positive"}, {"measurement": "mutagenic call", "setting": "Test System: AMES SALMONELLA TYPHIMURIUM, Strain/Indicator: TA98, Metabolic Activation: RAT, LIVER, S-9, AROCLOR 1254, Method: STANDARD PLATE", "result": "inactive; negative"}, {"measurement": "mutagenic call", "setting": "Test System: AMES SALMONELLA TYPHIMURIUM, Strain/Indicator: TA100, Metabolic Activation: NONE, Method: FLUCTUATION TEST (AEROBIC)", "result": "active; positive"}, {"measurement": "mutagenic call", "setting": "Test System: AMES SALMONELLA TYPHIMURIUM, Strain/Indicator: TA100, Metabolic Activation: NONE, Method: FLUCTUATION TEST (ANAEROBIC)", "result": "active; positive"}, {"measurement": "mutagenic call", "setting": "[2]", "result": "active; positive"}, {"measurement": "mutagenic call", "setting": "Test System: AMES SALMONELLA TYPHIMURIUM, Strain/Indicator: TA100, Metabolic Activation: NONE, Method: STANDARD PLATE (AEROBIC)", "result": "active; positive"}, {"measurement": "mutagenic call", "setting": "Test System: AMES SALMONELLA TYPHIMURIUM, Strain/Indicator: TA100, Metabolic Activation: NONE, Method: STANDARD PLATE (ANAEROBIC)", "result": "inactive; negative"}, {"measurement": "mutagenic call", "setting": "Test System: AMES SALMONELLA TYPHIMURIUM, Strain/Indicator: TA100, Metabolic Activation: RAT, LIVER, S-9, AROCLOR 1254, Method: PREINCUBATION", "result": "active; positive"}, {"measurement": "mutagenic call", "setting": "Test System: AMES SALMONELLA TYPHIMURIUM, Strain/Indicator: TA100, Metabolic Activation: RAT, LIVER, S-9, AROCLOR 1254, Method: STANDARD PLATE", "result": "active; positive"}, {"measurement": "mutagenic call", "setting": "Test System: AMES SALMONELLA TYPHIMURIUM, Strain/Indicator: TA102, Metabolic Activation: NONE, Method: STANDARD PLATE", "result": "active; positive"}, {"measurement": "mutagenic call", "setting": "Test System: AMES SALMONELLA TYPHIMURIUM, Strain/Indicator: TA104, Metabolic Activation: NONE, Method: STANDARD PLATE", "result": "active; positive"}, {"measurement": "mutagenic call", "setting": "Test System: AMES SALMONELLA TYPHIMURIUM, Strain/Indicator: TA104, Metabolic Activation: RAT, LIVER, S-9, AROCLOR 1254, Method: STANDARD PLATE", "result": "active; positive"}, {"measurement": "mutagenic call", "setting": "Test System: E. COLI, Strain/Indicator: WP2 UVRA (PKM101), Metabolic Activation: NONE, Method: STANDARD PLATE (AEROBIC)", "result": "active; positive"}, {"measurement": "mutagenic call", "setting": "Test System: E. COLI, Strain/Indicator: WP2 UVRA (PKM101), Metabolic Activation: NONE, Method: STANDARD PLATE (ANAEROBIC)", "result": "inactive; negative"}, {"measurement": "mutagenic call", "setting": "Test System: MOUSE LYMPHOMA, Strain/Indicator: L5178Y (TK+/TK-), Metabolic Activation: NONE, Method: SUSPENSION/PLATE", "result": "active; positive"}, {"measurement": "mutagenic call", "setting": "Test System: MOUSE LYMPHOMA, Strain/Indicator: L5178Y (TK+/TK-), Metabolic Activation: RAT, LIVER, S-9, AROCLOR 1254, Method: SUSPENSION/PLATE", "result": "active; positive"}, {"measurement": "mutagenic call", "setting": "Test System: Mouse lymphoma, Strain/Indicator: L5178Y (tk+/tk-), Metabolic Activation: None, Method: Suspension/plate", "result": "active; positive"}, {"measurement": "mutagenic call", "setting": "Test System: Mouse lymphoma, Strain/Indicator: L5178Y (tk+/tk-), Metabolic Activation: Rat, Liver, S-9, Aroclor 1254, Method: Suspension/plate", "result": "inactive; negative"}]}, {"molecule": "O=c1c2c(c3c(ccc4ccc[nH]c43)c1O)O2", "values": [{"measurement": "mutagenic call", "setting": "[2]", "result": "active; positive"}]}, {"molecule": "O=CNc1ccccc1", "values": [{"measurement": "mutagenic call", "setting": "Test System: AMES SALMONELLA TYPHIMURIUM, Strain/Indicator: TA97, Metabolic Activation: HAMSTER, LIVER, S-9, AROCLOR 1254 (10 OR 30%), Method: PREINCUBATION", "result": "inactive; negative"}, {"measurement": "mutagenic call", "setting": "Test System: AMES SALMONELLA TYPHIMURIUM, Strain/Indicator: TA97, Metabolic Activation: NONE, Method: PREINCUBATION", "result": "inactive; negative"}, {"measurement": "mutagenic call", "setting": "Test System: AMES SALMONELLA TYPHIMURIUM, Strain/Indicator: TA97, Metabolic Activation: RAT, LIVER, S-9, AROCLOR 1254 (10 OR 30%), Method: PREINCUBATION", "result": "inactive; negative"}, {"measurement": "mutagenic call", "setting": "Test System: AMES SALMONELLA TYPHIMURIUM, Strain/Indicator: TA98, Metabolic Activation: HAMSTER, LIVER, S-9, AROCLOR 1254 (10 OR 30%), Method: PREINCUBATION", "result": "inactive; negative"}, {"measurement": "mutagenic call", "setting": "Test System: AMES SALMONELLA TYPHIMURIUM, Strain/Indicator: TA98, Metabolic Activation: NONE, Method: PREINCUBATION", "result": "inactive; negative"}, {"measurement": "mutagenic call", "setting": "Test System: AMES SALMONELLA TYPHIMURIUM, Strain/Indicator: TA98, Metabolic Activation: RAT, LIVER, S-9, AROCLOR 1254 (10 OR 30%), Method: PREINCUBATION", "result": "inactive; negative"}, {"measurement": "mutagenic call", "setting": "Test System: AMES SALMONELLA TYPHIMURIUM, Strain/Indicator: TA100, Metabolic Activation: HAMSTER, LIVER, S-9, AROCLOR 1254 (10 OR 30%), Method: PREINCUBATION", "result": "inactive; negative"}, {"measurement": "mutagenic call", "setting": "Test System: AMES SALMONELLA TYPHIMURIUM, Strain/Indicator: TA100, Metabolic Activation: NONE, Method: PREINCUBATION", "result": "inactive; negative"}, {"measurement": "mutagenic call", "setting": "Test System: AMES SALMONELLA TYPHIMURIUM, Strain/Indicator: TA100, Metabolic Activation: RAT, LIVER, S-9, AROCLOR 1254 (10 OR 30%), Method: PREINCUBATION", "result": "inactive; negative"}, {"measurement": "mutagenic call", "setting": "Test System: AMES SALMONELLA TYPHIMURIUM, Strain/Indicator: TA1535, Metabolic Activation: HAMSTER, LIVER, S-9, AROCLOR 1254 (10 OR 30%), Method: PREINCUBATION", "result": "inactive; negative"}, {"measurement": "mutagenic call", "setting": "Test System: AMES SALMONELLA TYPHIMURIUM, Strain/Indicator: TA1535, Metabolic Activation: NONE, Method: PREINCUBATION", "result": "inactive; negative"}, {"measurement": "mutagenic call", "setting": "Test System: AMES SALMONELLA TYPHIMURIUM, Strain/Indicator: TA1535, Metabolic Activation: RAT, LIVER, S-9, AROCLOR 1254 (10 OR 30%), Method: PREINCUBATION", "result": "inactive; negative"}]}, {"molecule": "CC(=O)[C@]1(O)Cc2c(O)c3c(c(O)c2[C@@H](O[C@H]2C[C@H](N)[C@H](O)[C@H](C)O2)C1)C(=O)c1ccccc1C3=O", "values": [{"measurement": "mutagenic call", "setting": "Test System: AMES SALMONELLA TYPHIMURIUM, Strain/Indicator: GW257, Metabolic Activation: NONE, Method: STANDARD PLATE", "result": "active; positive"}, {"measurement": "mutagenic call", "setting": "[1]", "result": "active; positive"}, {"measurement": "mutagenic call", "setting": "[2]", "result": "active; positive"}, {"measurement": "mutagenic call", "setting": "Test System: AMES SALMONELLA TYPHIMURIUM, Strain/Indicator: TA1538, Metabolic Activation: NONE, Method: STANDARD PLATE", "result": "active; positive"}, {"measurement": "mutagenic call", "setting": "Test System: CHINESE HAMSTER V-79, Strain/Indicator: V-79/6-THIOGUANINE, Metabolic Activation: NONE, Method: SUSPENSION/PLATE", "result": "active; positive"}, {"measurement": "mutagenic call", "setting": "Test System: UDS RAT HEPATOCYTES, Strain/Indicator: THY INCORP, Metabolic Activation: NONE, Method: AUTOMATIC COLONY COUNTER", "result": "active; positive"}]}, {"molecule": "COC(=O)c1ccc([N+](=O)[O-])c2c(NCCCN(C)C)c3ccccc3nc12", "values": [{"measurement": "mutagenic call", "setting": "[1]", "result": "active; positive"}, {"measurement": "mutagenic call", "setting": "[2]", "result": "active; positive"}]}, {"molecule": "COc1c(O)c(Cl)c(Cl)c(Cl)c1Cl", "values": [{"measurement": "mutagenic call", "setting": "Test System: CHINESE HAMSTER V-79, Strain/Indicator: V-79/6-THIOGUANINE, Metabolic Activation: NONE, Method: STANDARD PLATE", "result": "inactive; negative"}]}]}
